Measured values from the NIST ThermoML archive (doi:10.1016/j.tca.2018.10.026).
± gives the expanded uncertainty stated by the source.

Assay: Molar enthalpy of transition or fusion
Settings: Crystal; DSC

Molar enthalpy of transition or fusion: 10.5 ± 0.22 kcal/mol
Compound: O.O.O.O.O.O.[Br-].[Br-].[Ca+2] [calcium bromide hexahydrate]
